Data: patent publication US12606548B2, “Fungicidal oxadiazoles” (FMC CORPORATION, priority 2019, dated 2026)

Legend:
[1] = test system: Phakopsora pachyrhizi; experiment: Test A: test suspension sprayed on soybean seedlings, inoculated next day with Phakopsora pachyrhizi (Asian soybean rust), visual disease rating; assay type: in vivo; conditions: for Test A rating (% disease control): relative to the controls
Excerpt: General protocol for preparing test suspensions for Tests A-C: the test compounds were first dissolved in acetone in an amount equal to 3% of the final volume and then suspended at the desired concentration (in ppm) in acetone and purified water (50/50 mix by volume) containing 250 ppm of the surfactant PEG400 (polyhydric alcohol esters). The resulting test suspensions were then used in Tests A-C. The test suspension was sprayed to the point of run-off on soybean seedlings. The following day the seedlings were inoculated with a spore suspension of Phakopsora pachyrhizi (the causal agent of Asian soybean rust) and incubated in a saturated atmosphere at 22° C., for 24 h and then moved to a growth chamber at 22° C., for 8 days, after which time visual disease ratings were made. […] A dash (-) indicates the compound was not tested. The test suspensions were sprayed at the concentration listed in the column “Rate in ppm”, unless otherwise indicated.

[2] = test system: Puccinia recondita f. sp. tritici; experiment: Test C: test suspension sprayed on wheat seedlings, inoculated next day with Puccinia recondita f. sp. tritici (wheat leaf rust), visual disease rating; assay type: in vivo; conditions: for Test C rating (% disease control): relative to the controls
Excerpt: General protocol for preparing test suspensions for Tests A-C: the test compounds were first dissolved in acetone in an amount equal to 3% of the final volume and then suspended at the desired concentration (in ppm) in acetone and purified water (50/50 mix by volume) containing 250 ppm of the surfactant PEG400 (polyhydric alcohol esters). The resulting test suspensions were then used in Tests A-C. The test suspension was sprayed to the point of run-off on wheat seedlings. The following day the seedlings were inoculated with a spore suspension of Puccinia recondita f. sp. tritici; (the causal agent of wheat leaf rust) and incubated in a saturated atmosphere at 20° C., for 24 h, and then moved to a growth chamber at 20° C., for 6 days, after which time visual disease ratings were made. […] A dash (-) indicates the compound was not tested. The test suspensions were sprayed at the concentration listed in the column “Rate in ppm”, unless otherwise indicated.

| Compound | Test A rating (% disease control) ([1]; Rate 10 ppm test suspension) [%] | Test C rating (% disease control) ([2]; Rate 10 ppm test suspension) [%] | further results |
| --- | --- | --- | --- |
| COC(=O)c1cnn(CCCc2ccc(-c3noc(C(F)(F)F)n3)cc2)c1 [compound 436] | 100 | 74 |  |
| COC(=O)c1nccn(Cc2ccc(-c3noc(C(F)(F)F)n3)cc2)c1=O [compound 423] | 86 | 80 |  |
| C=C(Cl)COC(=O)c1cnn(Cc2ccc(-c3noc(C(F)(F)F)n3)cc2)c1 [compound 482] | 100 | 100 |  |
| N#Cc1cnn(CCCc2ccc(-c3noc(C(F)(F)F)n3)cc2)c1 [compound 435] | 100 | 74 |  |
| CCC(C)OC(=O)c1cnn(Cc2ccc(-c3noc(C(F)(F)F)n3)cc2)c1 (stereo not shown) [compound 481] | 100 | 100 |  |
| COC(=O)c1ccc(=O)n(Cc2ccc(-c3noc(C(F)(F)F)n3)cc2)c1 [compound 420] | 100 | 100 |  |
| CN(C)C(=O)C1=NOC(Cc2ccc(-c3noc(C(F)(F)F)n3)s2)C1 (racemic) [compound 460] |  |  | Test A rating (% disease control) ([1]; Rate 50 ppm test suspension): 100%; Test C rating (% disease control) ([2]; Rate 50 ppm test suspension): 99% |
| O=C(O)C1=NOC(Cc2ccc(-c3noc(C(F)(F)F)n3)s2)C1 (racemic) [compound 367] |  |  | Test A disease control rating ([1]; 50 ppm test suspension): 96%; Test C disease control rating ([2]; 50 ppm test suspension): 67% |
| CCN(CC)C(=O)C1=NOC(Cc2ccc(-c3noc(C(F)(F)F)n3)s2)C1 (racemic) [compound 430] |  |  | Test A rating (% disease control) ([1]; Rate 50 ppm test suspension): 100%; Test C rating (% disease control) ([2]; Rate 50 ppm test suspension): 100% |
| CCOC(=O)c1cnn(Cc2ccc(-c3noc(C(F)(F)F)n3)cn2)c1 [compound 424] | 100 | 96 |  |
| FC(F)(F)c1nc(-c2ccc(Cn3ccc4ncccc43)cc2)no1 [Compound 136, 1-[[4-[5-(trifluoromethyl)-1,2,4-oxadiazol-3-yl]phenyl]methyl]-1H-pyrrolo[3,2-h]pyridine] |  |  | Test A disease control rating ([1]; 10 ppm test suspension): 100%; Test A disease control rating ([1]; 50 ppm test suspension): 100%; Test C disease control rating ([2]; 10 ppm test suspension): 68%; Test C disease control rating ([2]; 50 ppm test suspension): 94% |
| CCOC(=O)c1cnn(Cc2ccc3cc(-c4noc(C(F)(F)F)n4)ccc3c2)c1 [compound 457] |  |  | Test A rating (% disease control) ([1]; Rate 50 ppm test suspension): 77%; Test C rating (% disease control) ([2]; Rate 50 ppm test suspension): 0% |
| O=C(OCCCCl)c1cnn(Cc2ccc(-c3noc(C(F)(F)F)n3)cc2)c1 [compound 448] | 100 | 100 |  |
| 1-[[4-[5-(trifluoromethyl)-1,2,4-oxadiazol-3-yl]phenyl]methyl]-1H-pyrazolo[3,4-b]pyridine [Compound 147] |  |  | Test A disease control rating ([1]; 10 ppm test suspension): 100%; Test C disease control rating ([2]; 10 ppm test suspension): 68% |
| CC(=O)Nc1cnn(Cc2ccc(-c3noc(C(F)(F)F)n3)cc2)c1 [compound 441] | 87 | 9 |  |
| 3-[5-[(4-bromo-1H-pyrazol-1-yl)methyl]-2-thienyl]-5-(trifluoromethyl)-1,2,4-oxadiazole [Compound 71] |  |  | Test A disease control rating ([1]; 10 ppm test suspension): 100%; Test C disease control rating ([2]; 10 ppm test suspension): 74% |
| COCCCOC(=O)c1cnn(Cc2ccc(-c3noc(C(F)(F)F)n3)cc2)c1 [compound 474] | 100 | 100 |  |
| O=C(OCCBr)c1cnn(Cc2ccc(-c3noc(C(F)(F)F)n3)cc2)c1 [compound 478] |  |  | Test A rating (% disease control) ([1]; Rate 50 ppm test suspension): 81%; Test C rating (% disease control) ([2]; Rate 50 ppm test suspension): 19% |
| CCON=Cc1cnn(Cc2ccc(-c3noc(C(F)(F)F)n3)cc2)c1 [compound 384] | 100 | 100 |  |
| CCONC(=O)c1cnn(Cc2ccc(-c3noc(C(F)(F)F)n3)cc2)c1 [compound 380] | 100 | 100 |  |
| CCCOC(=O)c1cnn(Cc2ccc3cc(-c4noc(C(F)(F)F)n4)ccc3c2)c1 [compound 416] |  |  | Test A rating (% disease control) ([1]; Rate 50 ppm test suspension): 77%; Test C rating (% disease control) ([2]; Rate 50 ppm test suspension): 0% |
| Nc1ncnc2c1cnn2Cc1ccc(-c2noc(C(F)(F)F)n2)cc1 [compound 407] | 100 | 100 |  |

| Compound | Test A rating (% disease control) ([1]; Rate 10 ppm test suspension) [%] | Test C rating (% disease control) ([2]; Rate 10 ppm test suspension) [%] | further results |
| --- | --- | --- | --- |
| COC(=O)c1cnn(Cc2ccc(-c3noc(C(F)(F)F)n3)s2)c1 [compound 188] |  |  | Test A disease control rating ([1]; 10 ppm test suspension): 100%; Test C disease control rating ([2]; 10 ppm test suspension): 100% |
| FC(F)(F)c1nc(-c2ccc(Cn3cc4cc(Br)cnc4n3)cc2)no1 [compound 414] | 100 | 100 |  |
| COC(=O)c1cccn(Cc2ccc(-c3noc(C(F)(F)F)n3)cc2)c1=O [compound 422] | 90 | 93 |  |
| COCCNC(=O)C1=NOC(Cc2ccc(-c3noc(C(F)(F)F)n3)s2)C1 (racemic) [compound 461] |  |  | Test A rating (% disease control) ([1]; Rate 50 ppm test suspension): 100%; Test C rating (% disease control) ([2]; Rate 50 ppm test suspension): 100% |
| CS(=O)(=O)Nc1cnn(Cc2ccc(-c3noc(C(F)(F)F)n3)cc2)c1 [compound 442] | 44 | 0 |  |
| FC(F)(F)c1nc(-c2ccc(Cn3ncc4c(I)ccnc43)cc2)no1 [compound 444] | 96 | 86 |  |
| CCOC(=O)Nc1cnn(Cc2ccc(-c3noc(C(F)(F)F)n3)cc2)c1 [compound 443] | 100 | 74 |  |
| O=C(NCc1cccnc1)c1cnn(Cc2ccc(-c3noc(C(F)(F)F)n3)cc2)c1 [compound 483] | 100 | 54 |  |
| CCOC(CC(=O)c1cnn(Cc2ccc(-c3noc(C(F)(F)F)n3)cc2)c1)OCC [compound 391] | 100 | 100 |  |
| O=C1N(Cc2ccc(-c3noc(C(F)(F)F)n3)cc2)CCc2cncn21 [compound 462] | 100 | 89 |  |
| C#CCON=Cc1cnn(Cc2ccc(-c3noc(C(F)(F)F)n3)cc2)c1 [compound 387] | 100 | 99 |  |
| CCCOC(=O)c1cnn(C(C)c2ccc(-c3noc(C(F)(F)F)n3)s2)c1 (racemic) [compound 493] | 100 | 100 |  |
| Cc1ccc(C(O)c2ccc(-c3noc(C(F)(F)F)n3)cc2)cc1 (stereo not shown) [compound 501] | 100 | 0 |  |
| O=C(NCCCl)c1coc(Cc2ccc(-c3noc(C(F)(F)F)n3)cc2)n1 [compound 204] |  |  | Test A disease control rating ([1]; 10 ppm test suspension): 100%; Test C disease control rating ([2]; 10 ppm test suspension): 100% |
| CCCON=Cc1cnn(Cc2ccc(-c3noc(C(F)(F)F)n3)cc2)c1 [compound 385] | 100 | 100 |  |
| CCNC(=O)C1=NOC(Cc2ccc(-c3noc(C(F)(F)F)n3)s2)C1 (racemic) [compound 369] |  |  | Test A disease control rating ([1]; 50 ppm test suspension): 100%; Test C disease control rating ([2]; 50 ppm test suspension): 100% |
| Nc1cnn(Cc2ccc(-c3noc(C(F)(F)F)n3)cc2)c1 [compound 381] | 0 | 0 |  |
| FC(F)(F)c1nc(-c2ccc(Cn3ncc4ncccc43)cc2)no1 [compound 408] | 100 | 100 |  |
| FC(F)(F)c1nc(-c2ccc(Cn3cc4ncccc4n3)cc2)no1 [compound 409] | 100 | 100 |  |
| O=[N+]([O-])c1cnn(Cc2ccc(-c3noc(C(F)(F)F)n3)cc2)c1 [compound 382] | 100 | 96 |  |
| O=C(OCCCl)c1cnn(Cc2ccc(-c3noc(C(F)(F)F)n3)cc2)c1 [compound 477] | 100 | 100 |  |
